Reference: article doi:10.1101/2025.07.09.663820v1 (biorxiv, 2025)
Where a chain is given by its changes, count along the chain named.

Experiments:
Assay in all cases: isothermal titration calorimetry
Type in all cases: binding
[1] = biological target: T1, LYR4 (Medicago truncatula, UniProt G7K7K0); conditions: ectodomain
T1 sequence (G7K7K0 24-242): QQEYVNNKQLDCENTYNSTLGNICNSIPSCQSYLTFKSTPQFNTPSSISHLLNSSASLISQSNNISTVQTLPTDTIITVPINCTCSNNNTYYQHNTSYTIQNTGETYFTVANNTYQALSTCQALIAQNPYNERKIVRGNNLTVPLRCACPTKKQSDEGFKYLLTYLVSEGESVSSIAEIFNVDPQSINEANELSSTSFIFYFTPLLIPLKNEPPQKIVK

[2] = biological target: T2, CERK6 (Lotus japonicus, UniProt D3KTZ6); conditions: read-out: affinity; ectodomain; crystal structure: CO5 in LysM1 and LysM2
T2 sequence (D3KTZ6 26-223): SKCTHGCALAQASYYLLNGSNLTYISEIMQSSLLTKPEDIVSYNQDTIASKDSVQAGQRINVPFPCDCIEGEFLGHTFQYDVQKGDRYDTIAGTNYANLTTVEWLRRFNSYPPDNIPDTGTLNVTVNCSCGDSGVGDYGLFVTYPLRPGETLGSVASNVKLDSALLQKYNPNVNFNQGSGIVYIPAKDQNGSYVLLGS

[3] = biological target: T3, CHIP13 (Lotus japonicus, UniProt D3KU00); conditions: ectodomain
T3 sequence (D3KU00 33-253): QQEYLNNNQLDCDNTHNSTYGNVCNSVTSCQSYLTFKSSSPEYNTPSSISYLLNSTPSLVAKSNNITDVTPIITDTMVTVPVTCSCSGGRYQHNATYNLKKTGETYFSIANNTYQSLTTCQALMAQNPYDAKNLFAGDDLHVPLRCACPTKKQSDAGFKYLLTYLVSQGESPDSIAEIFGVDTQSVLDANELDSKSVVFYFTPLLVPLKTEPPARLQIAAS

[4] = biological target: T4, MtCERK1 (Medicago truncatula, UniProt G7J6P5); conditions: read-out: affinity; ectodomain
T4 sequence (G7J6P5 30-232): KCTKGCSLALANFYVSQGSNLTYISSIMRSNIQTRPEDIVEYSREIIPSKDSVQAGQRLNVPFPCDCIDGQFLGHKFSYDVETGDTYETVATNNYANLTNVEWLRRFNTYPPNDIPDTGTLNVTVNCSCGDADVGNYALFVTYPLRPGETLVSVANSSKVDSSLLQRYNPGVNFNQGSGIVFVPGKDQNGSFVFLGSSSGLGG

[5] = biological target: T5, CHIP13 (Lotus japonicus, UniProt D3KU00, Y232A/F233A); conditions: ectodomain variant
T5 sequence (D3KU00 33-253 Y232A/F233A): T3 sequence (D3KU00 33-253) with Y200A, F201A

SMILES	Kd [1] [µM]	Kd [2] [µM]	Kd [3] [µM]	Kd [4] [µM]	Kd [5] [µM]	Kd ([3]; crystal structure at 1.35 Å: LysM2, LysM3 and bridge domain site) [µM]
CC(=O)N[C@H]1[C@H](O[C@H]2[C@H](O)[C@@H](NC(C)=O)[C@H](O[C@H]3[C@H](O)[C@@H](NC(C)=O)C(O)O[C@@H]3CO)O[C@@H]2CO)O[C@H](CO)[C@@H](O[C@@H]2O[C@H](CO)[C@@H](O[C@@H]3O[C@H](CO)[C@@H](O)[C@H](O)[C@H]3NC(C)=O)[C@H](O)[C@H]2NC(C)=O)[C@@H]1O (stereo partly shown) [CO5, penta-N-acetyl-chitopentaose]	96	2800	1270	729	–	–
CC(=O)N[C@H]1[C@H](O[C@H]2[C@H](O)[C@@H](NC(C)=O)[C@H](O[C@H]3[C@H](O)[C@@H](NC(C)=O)[C@H](O[C@H]4[C@H](O)[C@@H](NC(C)=O)C(O)O[C@@H]4CO)O[C@@H]3CO)O[C@@H]2CO)O[C@H](CO)[C@@H](O[C@@H]2O[C@H](CO)[C@@H](O[C@@H]3O[C@H](CO)[C@@H](O[C@@H]4O[C@H](CO)[C@@H](O[C@@H]5O[C@H](CO)[C@@H](O)[C@H](O)[C@H]5NC(C)=O)[C@H](O)[C@H]4NC(C)=O)[C@H](O)[C@H]3NC(C)=O)[C@H](O)[C@H]2NC(C)=O)[C@@H]1O (stereo partly shown) [CO8, octa-N-acetyl-chitooctaose]	1.92	–	–	–	107 ± 80	0.9
